Test results reported in US9359409B2, “Antimicrobial peptides, compositions comprising the same and uses thereof” (priority 2012, dated 2016).
Read-outs that look alike come from different tables or passages of the source. Ends that are not written are not given here.

Legend:
[1] = system: Escherichia coli
Description: (§1) The 5 designed and synthesized peptides of the invention, plus omiganan (peptide of the state of the art) were evaluated for their antimicrobial capacity in microdilution assays for determining the minimum inhibitory concentration (MIC). A first panel of 8 representative strains was analyzed in these assays, encompassing Gram positive and Gram negative bacteria. […] The lowest MIC values indicate a higher antimicrobial potency.
(§2) Subsequently, an analysis of a panel of clinical isolates including strains with different resistance mechanisms against conventional antibiotics was carried out, all of which are of clinical relevance. […] In Table 3 the results for a panel of Gram negative bacteria are shown, and in Table 4 for a panel of […] bacteria. In these tables the detected gene/s responsible for the resistance against antibiotics for each strain, are included.
(§3) Antimicrobial activity was analyzed by means of the determination of the MIC (minimum inhibitory concentration) by the microdilution technique. The technique was carried out in the standard fashion according to (CLSI M07-A9 Vol. 32 No 2. January 2012). The peptide concentration range used was from 0.5 μg/mL to 512 μg/mL in two-fold serial dilutions. The used medium was MH Difco broth supplemented with cations, at a final concentration of Ca^++20-25 mg/L and Mg^++10-12.5 mg/L. The working inoculum used corresponds to a 1/100 dilution of a bacterial suspension equivalent to 0.5 in the Mc Farland scale.

[2] = system: E. coli; format: cell-based
Description: (§4) In vitro sensitivity assay of aerobically growing bacteria, using the disc diffusion method was performed according to the standards in the M2 document of the CLSI (Clinical and Laboratory Standards Institute: Performance Standards for Antimicrobial Disk Susceptibility Tests.) using the non-amidated peptides
(§5) In brief, intermediate solutions (10×) of the antimicrobial non-amidated peptides were prepared by serial dilutions 1:2, 1:4 and 1:8 by two-fold dilutions. Then, one part of the solution of the antimicrobial peptide 10× was added to nine parts of melted bacteriological agar. The antibiotic solution was added for each dilution, in the melted agar and cooled to 45-50° C. in a water bath. Then, the agar-antibiotic mixture was placed in a Petri dish until a 3-4 mm depth was reached. The inoculum is prepared with a turbidity of 0.5 in the McFarland scale (approximately 1-2 10^8 CFU/ml). The final inoculum required for the agar dilution test is 10^4 colony forming units (CFU) per “spot” having 5-8 mm in diameter. The inoculated plates must be incubated upside down at 35° C. for a period of 16-20 hs. MIC was recorded as the value of the lower dilution completely inhibiting bacterial development, without considering the development of a single colony or a slight film caused by the inoculum deposit. The final point in these cases will correspond to the concentration at which there is more than 80% reduction in growth as compared with the control.

[3] = system: S. aureus; format: cell-based
Description: as §4, §5

[4] = system: S. warnerii; format: cell-based
Description: as §4, §5

[5] = system: P. aeruginosa; format: cell-based
Description: as §4, §5

[6] = system: K. pneumoniae; format: cell-based
Description: as §4, §5

[7] = system: S. cohnii; format: cell-based
Description: as §4, §5

[8] = system: E. gallinarum
Description: as §2, §3

[9] = system: S. saprophyticus
Description: as §2, §3

[10] = system: A. baumanii
Description: as §2, §3

[11] = system: S. haemolyticus
Description: as §2, §3

[12] = system: E. raffinosus
Description: as §2, §3

[13] = system: Pseudomonas aeruginosa; assay: MIC by broth microdilution; format: cell-based
Description: as §1, §2, §3

[14] = system: Staphylococcus aureus; assay: MIC by broth microdilution; format: cell-based
Description: as §1, §2, §3

[15] = system: human erythrocytes; assay: Erythrocyte hemolysis assay (cytotoxicity); format: cell-based; details: for therapeutic index (antimicrobial potency over the cytotoxicity percentage): in words
Description: Subsequently, the capacity of the peptides of the invention for lysing human erythrocytes was evaluated, as a measure of their cytotoxicity (Table 2). The assays were carried out according to the Examples and are expressed as a percentage of total lysis obtained with either water or the surfactant Tween 20. In this assays, the lower hemolysis percentage, the lower expected cytotoxic activity.
Evaluation of cytotoxic activity was performed by means of an erythrocyte hemolysis assay (according to Pure Appl. Chem., Vol. 79, No. 4, pp. 717-728, 2007). In brief, from a volume of heparinized human whole blood, 3 times that volume of PBS is added and centrifuged 10 minutes at 1500 rpm, repeating the washing two more times. 10% blood solutions in PBS were prepared with that pellet. Subsequently, each group was added the corresponding peptide at the indicated concentration and incubated at 37° C. for 30 minutes. […]

[16] = system: E. faecalis
Description: as §2, §3

[17] = E. coli ABC11, resistance gene ctx-m-2
[18] = E. coli Cos15, resistance gene per + tem
[19] = E. coli LCA1, resistance gene ctx-m-2 + tem-1
[20] = E. coli M5306, resistance gene ctx-m-2 + tem-1 + per-2
[21] = E. coli M7859, resistance gene cit
[22] = E. coli NEU23, resistance gene oxa-GIII + tem
[23] = E. gallinarum M2685, resistance gene vanC1 + vanA
[24] = E. gallinarum M2723, resistance gene vanC1 + vanA
[25] = A. baumanii FAV-1, resistance gene per + oxa-51 + oxa-58
[26] = A. baumanii M5179, resistance gene oxa-51
[27] = A. baumanii M5277, resistance gene per
[28] = A. baumanii M5282, resistance gene oxa-51
[29] = A. baumanii M7489, resistance gene oxa-51 + tem
[30] = A. baumanii M7978, resistance gene imp
[31] = A. baumanii M13523, resistance gene oxa-51
[32] = P. aeruginosa M7525, resistance gene spm
[33] = P. aeruginosa M7712, resistance gene spm
[34] = P. aeruginosa M7723, resistance gene kpc
[35] = P. aeruginosa M7728, resistance gene imp
[36] = P. aeruginosa M7907, resistance gene per
[37] = S. aureus 28, resistance gene ermA
[38] = S. aureus 33, resistance gene msrA
[39] = S. aureus 204, resistance gene ermA
[40] = S. aureus 239, resistance gene ermC
[41] = S. aureus M2832, resistance gene mecA
[42] = S. aureus M4046, resistance gene mecA
[43] = S. aureus M6276, resistance gene ermA + lnuA
[44] = S. aureus M6784, resistance gene mecA

RIVQRIKKWLLKWKKLGY-NH2 [peptide 5, RIVQRIKKWLLKWKKLGY]
MIC [1, 17]: 32 µg/mL | MIC [1, 18]: 64 µg/mL | MIC [1, 19]: 64 µg/mL | MIC [1, 20]: 64 µg/mL | MIC [1, 21]: 16 µg/mL | MIC [1, 22]: 32 µg/mL | MIC in agar dilution [2]: 64 µg/mL | MIC in agar dilution [3]: >128 µg/mL | MIC in agar dilution [4]: 8 µg/mL | MIC in agar dilution [5]: >128 µg/mL | MIC in agar dilution [6]: >128 µg/mL | MIC in agar dilution [7]: 8 µg/mL | MIC [8, 23]: 16 µg/mL | MIC [8, 24]: 16 µg/mL | MIC [9]: 8 µg/mL | MIC [10, 25]: 16 µg/mL | MIC [10, 26]: 32 µg/mL | MIC [10, 27]: 8 µg/mL | MIC [10, 28]: 8 µg/mL | MIC ([10]; A. baumanii M5949, resistance gene oxa-23 + oxa-GVI): 16 µg/mL | MIC [10, 29]: 16 µg/mL | MIC [10, 30]: 8 µg/mL | MIC ([10]; A. baumanii M9665, resistance gene oxa-51): 32 µg/mL | MIC [10, 31]: 4 µg/mL | MIC [11]: 8 µg/mL | MIC [12]: 8 µg/mL | MIC [13, 32]: 64 µg/mL | MIC [13, 33]: 64 µg/mL | MIC [13, 34]: 32 µg/mL | MIC [13, 35]: 64 µg/mL | MIC [13, 36]: 64 µg/mL | MIC [14, 37]: 64 µg/mL | MIC [14, 38]: 64 µg/mL | MIC [14, 39]: 32 µg/mL | MIC [14, 40]: 64 µg/mL | MIC ([14]; S. aureus ATCC29213, WT): 32 µg/mL | MIC [14, 41]: 64 µg/mL | MIC [14, 42]: 32 µg/mL | MIC [14, 43]: 64 µg/mL | MIC [14, 44]: 32 µg/mL | therapeutic index (antimicrobial potency over the cytotoxicity percentage) [15]: highest therapeutic index values

WPKWWKWKRRWGRKKAKKRRG-NH2 [peptide 1]
MIC [1, 17]: 128 µg/mL | MIC [1, 18]: 128 µg/mL | MIC [1, 19]: 128 µg/mL | MIC [1, 20]: 128 µg/mL | MIC [1, 21]: 128 µg/mL | MIC ([1]; E. coli M9209, resistance gene kpc): 128 µg/mL | MIC [1, 22]: 128 µg/mL | MIC in agar dilution ([2]; non-amidated peptides, E. coli ATCC 25922, WT): >128 µg/mL | MIC in agar dilution ([3]; non-amidated peptides, S. aureus ATCC29213, MSSA): >128 µg/mL | MIC in agar dilution ([3]; non-amidated peptides, S. aureus M6794, MRSA): >128 µg/mL | MIC in agar dilution [4]: 16 µg/mL | MIC in agar dilution [5]: >128 µg/mL | MIC in agar dilution ([5]; non-amidated peptides, P. aeruginosa M13513, KPC): >128 µg/mL | MIC in agar dilution ([6]; non-amidated peptides, K. pneumoniae M13540, KPC): >128 µg/mL | MIC in agar dilution [7]: 16 µg/mL | MIC [8, 23]: 16 µg/mL | MIC [8, 24]: 32 µg/mL | MIC [9]: 16 µg/mL | MIC [10, 25]: 64 µg/mL | MIC [10, 26]: 64 µg/mL | MIC [10, 27]: 64 µg/mL | MIC [10, 28]: 64 µg/mL | MIC [10, 29]: 64 µg/mL | MIC [10, 30]: 64 µg/mL | MIC [10, 31]: 64 µg/mL | MIC [11]: 16 µg/mL | MIC [16]: 64 µg/mL | MIC ([16]; E. faecalis ATCC 51299, resistance gene vanB): 256 µg/mL | MIC ([16]; E. faecalis M4449, resistance gene vanA): 128 µg/mL | MIC ([16]; E. faecalis M4899, resistance gene vanB): 256 µg/mL | MIC ([16]; E. faecalis M4992, resistance gene vanA): 128 µg/mL | MIC ([16]; E. faecalis M6383, resistance gene vanA): 128 µg/mL | MIC ([16]; E. faecalis M6534, resistance gene vanB): 128 µg/mL | MIC ([13]; P. aeruginosa M5109, resistance gene vim): 128 µg/mL | MIC ([13]; P. aeruginosa M5470, resistance gene ND): 128 µg/mL | MIC [13, 32]: 64 µg/mL | MIC [13, 33]: 64 µg/mL | MIC [13, 34]: 64 µg/mL | MIC [13, 35]: 128 µg/mL | MIC [13, 36]: 128 µg/mL | MIC [14, 37]: 32 µg/mL | MIC [14, 38]: 32 µg/mL | MIC [14, 39]: 64 µg/mL | MIC [14, 40]: 32 µg/mL | MIC ([14]; S. aureus ATCC29213, WT): 32 µg/mL | MIC [14, 41]: 32 µg/mL | MIC [14, 42]: 32 µg/mL | MIC [14, 43]: 16 µg/mL | MIC [14, 44]: 32 µg/mL | therapeutic index (antimicrobial potency over the cytotoxicity percentage) [15]: highest therapeutic index values | Hemolysis % (1% Tween20) ([15]; peptide 128 ug/ml, percentage of total lysis obtained with 1% Tween20): 4% | Hemolysis % (water) ([15]; peptide 128 ug/ml, percentage of total lysis obtained with water): 3.4% | OD 540 nm ([15]; peptide 128 ug/ml, supernatant of human erythrocytes, 37° C., 30 minutes): 0.067
